These results are taken from PubChem BioAssay AID686961 (Sanford-Burnham Center for Chemical Genomics, 2013).

The assay deals with Dual specificity protein phosphatase 3 (Homo sapiens) (UniProt P51452). As to the kind of experiment: human DUSP3 enzyme inhibition – biochemical, fluorescence, OMFP substrate, selectivity assay for LMPTP inhibitor project, dose response (AID 686961). The note with it: recombinant VHR-1 enzyme, OMFP fluorogenic substrate, 50 min.

pIC50: −log10 of the molar value. Active and inactive are the calls of the source.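 The calls were made as follows: active = IC50 at or below 20 µM; inactive = the rest.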

Sequence of Dual specificity protein phosphatase 3 (Homo sapiens) (P51452 whole entry, looked up): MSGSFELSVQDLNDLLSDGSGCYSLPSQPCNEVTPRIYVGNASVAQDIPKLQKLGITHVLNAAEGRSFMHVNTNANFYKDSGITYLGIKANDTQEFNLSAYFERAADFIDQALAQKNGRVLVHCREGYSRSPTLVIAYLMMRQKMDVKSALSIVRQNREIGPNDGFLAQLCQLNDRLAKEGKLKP

With `c1ccc(-c2nc(NCc3cccnc3)c3ccccc3n2)cc1`, the IC50 was > 80 µM (inactive).

As to `CCN(c1ccccc1)S(=O)(=O)c1cc(C(=O)O)ccc1C`, the pIC50 was 5.69.

For the compound `COc1ccccc1CNc1nc(NCc2cnc(C)cn2)c2sccc2n1`, the IC50 entry was “inactive”.

Consider `CC(=O)Nc1ccc(S(=O)(=O)N2CCN(c3nc(NC4CCCC4)c4ccccc4n3)CC2)cc1`, for which the negative logarithm of the IC50 (pIC50) was 4.92.

Consider `Cc1c(CCC(=O)O)c(=O)oc2c(C)c(OCc3ccccc3Cl)ccc12`, for which the IC50 result is “inactive”.

Regarding `Clc1cccc(Cl)c1Cn1cnc(=NCc2ccco2)c2[nH]cnc21`, the IC50 result is “inactive”.

In the case of `CC(Nc1nc(N2CCNCC2)nc2ccccc12)c1ccccc1` (stereo unspecified), the pIC50 is 5.86.

In the case of `COCCNc1nc(NCc2cccc(OC)c2OC)c2sccc2n1`, the IC50 entry was “inactive”.

Consider `O=C(OCCNc1nc(-c2ccccc2)nc2ccccc12)c1cccnc1`, for which the IC50 is > 80 µM (inactive).

Turning to `Cc1ccc(-c2nc(NCc3cccnc3)c3ccccc3n2)cc1`, the IC50 result was “inactive”.

As to `Cc1cc(N2CCN(S(=O)(=O)c3ccc(Cl)c(Cl)c3)CC2)c2ccccc2n1`, the IC50 result is “inactive”.

With `Cc1ccc(-c2nc(NCCN3CCOCC3)c3ccccc3n2)cc1`, the IC50 is > 80 µM (inactive).

As for `COc1ccc(-c2ccc(/C=N/NC(=O)c3cccnc3)o2)c([N+](=O)[O-])c1`, the pIC50 was 5.02.

`O=C1C(=Cc2cn(-c3ccccc3)nc2-c2ccc(OCc3ccccc3)cc2)SC(=S)N1CCS(=O)(=O)O`: the pIC50 was 6.26.

Regarding `CC(C)Oc1ccc(-c2nc(NCC3CCCO3)c3ccccc3n2)cc1` (stereo unspecified), the IC50 result is “inactive”.

With `c1ccc(-c2nc(NCCCn3ccnc3)c3ccccc3n2)cc1`, the IC50 is > 80 µM (inactive).

In the case of `CCOC(=O)C1=C(C)N=c2sc(=Cc3ccc(OCC(=O)O)cc3)c(=O)n2C1c1ccc(SC)cc1` (stereo unspecified), the pIC50 was 5.74.

For `NC(=O)Cc1ccc(C(=O)CSc2nnc(-c3ccncc3)n2C2CC2)s1`, the pIC50 was 5.83.

Take `O=C(/C=C/c1ccc(Br)cc1)NC(=O)c1ccccc1O`: the pIC50 was 4.98.

Take `CC1C(=O)N(Cc2cn(Cc3ccco3)nn2)CCS(=O)(=O)N1Cc1ccc(-c2cccnc2)cc1` (stereo unspecified): the pIC50 is 6.04.

In the case of `Nc1nc(N)c(Cc2ccc(Cl)cc2Cl)c(N)n1`, the IC50 result was “inactive”.

Consider `CCOC(=O)Cn1c(=NC(=O)c2sc3ccccc3c2Cl)sc2cc(S(N)(=O)=O)ccc21`, for which the pIC50 was 6.40.

For the compound `Cc1cccc2nc(-c3ccccc3)nc(N[C@@H](CO)c3ccccc3)c12`, the IC50 is > 80 µM (inactive).

For `Cc1[nH]ccc(=O)c1Cc1c(Cl)cccc1Cl`, the IC50 was > 80 µM (inactive).

Regarding `O=C(N/N=C/c1ccc(Br)s1)c1cccc([N+](=O)[O-])c1`, the pIC50 was 5.71.

As to `CC(=O)Nc1ccc(CNc2nc(NCc3cccs3)nc3ccsc23)cc1`, the pIC50 was 5.03.

For the compound `Fc1ccccc1-c1nc(NC2CCCC2)c2ccccc2n1`, the IC50 entry is “inactive”.

Take `Cc1ccccc1Nc1cc(C)c2c(O)cccc2n1`: the IC50 is > 80 µM (inactive).

Turning to `O=c1cc(-c2cc3ccccc3o2)c2cc(O)ccc2o1`, the pIC50 is 5.25.

In the case of `Cc1cc2oc(=O)cc(-c3cc4ccccc4o3)c2cc1O`, the pIC50 is 5.54.

On to `CCOc1cc(/C=N/N=C2/NC(=O)C(CC(=O)O)S2)ccc1OCc1ccc(Cl)cc1Cl` (stereo unspecified), for which the pIC50 was 5.48.

Consider `c1ccc(-c2cc(N3CCCCC3)c3ccccc3n2)cc1`, for which the IC50 is > 80 µM (inactive).

In the case of `CC(C)OCCCNc1nc(-c2ccccc2)nc2ccccc12`, the IC50 result was “inactive”.

Turning to `COc1cccc(N2CCN(C(=O)c3ccc(CSc4nc5ccncc5[nH]4)cc3)CC2)c1`, the pIC50 was 4.91.

Take `NS(=O)(=O)c1ccc(CNC(=O)Cc2cccs2)cc1`: the pIC50 is 5.85.

With `COc1ccccc1CNc1nc(NCc2ccc(NC(C)=O)cc2)c2sccc2n1`, the pIC50 is 5.25.

Take `c1ccc(-c2cc(NCCN3CCCCC3)c3ccccc3n2)cc1`: the pIC50 is 4.90.

In the case of `CCc1nc(N)nc(N)c1-c1ccc(Cl)c(N=[N+]=[N-])c1`, the IC50 result is “inactive”.

Take `CCOC(=O)C1=C(C)N=c2sc(=Cc3ccc(OCC(=O)O)cc3)c(=O)n2C1c1ccc(Cl)cc1` (stereo unspecified): the pIC50 is 5.58.

On to `O=C(N/N=C\C=C\c1ccc(Br)cc1)c1ccc2c(c1)OCO2`, for which the pIC50 is 5.79.

In the case of `CCc1nc(N)nc(N)c1-c1ccc(Cl)cc1`, the IC50 is > 80 µM (inactive).

On to `c1ccc(-c2nc(NCCCN3CCOCC3)c3ccccc3n2)cc1`, for which the IC50 was > 80 µM (inactive).

Consider `COc1ccc(Nc2nc(=O)c3cc([N+](=O)[O-])ccc3s2)cc1`, for which the pIC50 is 5.41.

Regarding `O=C(CCCOc1ccc(Cl)cc1Cl)NNC(=O)c1ccc(NC(=O)c2ccccc2)cc1`, the pIC50 was 6.15.

As for `O=C(CCN1C(=O)/C(=C/c2ccc3c(c2)OCO3)SC1=S)Nc1ccc(C(=O)O)cc1`, the pIC50 was 4.89.

Turning to `NS(=O)(=O)c1ccc(CCNC(=O)c2ccc3nccnc3c2)cc1`, the IC50 entry was “inactive”.

With `Cc1c(CCC(=O)O)c(=O)oc2c(C)c3occ(-c4ccc(Cl)cc4)c3cc12`, the pIC50 is 5.27.

As to `O=C(N/N=C/c1ccc(OC(=O)c2cccs2)cc1)c1cccc(F)c1`, the pIC50 is 5.25.

In the case of `Cc1nc(N)nc(N)c1-c1ccc([N+](=O)[O-])cc1`, the IC50 was > 80 µM (inactive).

Take `O=C(/C=C/c1ccccc1Cl)Nc1ccc2c(c1)C(=O)NC2=O`: the pIC50 is 5.64.

As for `O=C(COc1ccc(/C=N/NC(=O)c2ccc(O)cc2)cc1)Nc1cccc([N+](=O)[O-])c1`, the pIC50 is 5.24.

In the case of `O=C(Nc1ccc2oc(-c3ccccc3F)nc2c1)c1ccc([N+](=O)[O-])o1`, the pIC50 was 5.80.

Regarding `CN(C)c1nc(N)nc(/C(C#N)=C/C2CC3C=CC2C3)n1` (stereo unspecified), the IC50 is > 80 µM (inactive).

Turning to `COc1cccc(CNc2nc(NCC3CC3)nc3ccsc23)c1OC`, the pIC50 is 4.84.

On to `CCc1nc(N)nc(N)c1-c1ccc(NCCN)c([N+](=O)[O-])c1`, for which the pIC50 was 4.97.

Regarding `COc1ccc(Nc2nc(NCc3cccs3)nc3ccsc23)cc1OC`, the pIC50 was 4.91.

In the case of `Cc1ccc(-c2nc(NC(=O)CSc3cc(C)c4ccccc4n3)ns2)cc1`, the pIC50 was 5.90.

For the compound `Cc1cc(N2CCC(C)CC2)nc2cccc(O)c12`, the pIC50 is 4.71.

As to `Cc1[nH]ccc2cc3nc4ccccc4c3cc12`, the pIC50 is 4.75.

For `O=C(NNC(=O)c1cc2cc3ccccc3nc2s1)c1cccc(Cl)c1`, the pIC50 is 5.70.

Turning to `CN1/C(=C/C=C/c2n(C)c3cc([N+](=O)[O-])c([N+](=O)[O-])cc3[n+]2C)C(C)(C)c2ccccc21`, the IC50 result was “inactive”.

On to `O=C(OCCNc1nc(-c2ccccc2)nc2ccccc12)c1ccncc1`, for which the IC50 is > 80 µM (inactive).

For `Fc1ccccc1-c1nc(NCCCN2CCOCC2)c2ccccc2n1`, the IC50 is > 80 µM (inactive).

In the case of `COc1cccc2c1[C@@H]1CN(CCCCn3c(=O)[nH]c4c(sc5ncc(-c6ccccc6)nc54)c3=O)C[C@@H]1CO2`, the pIC50 was 5.62.

`CCCCC(=O)Nc1ccc(C(=O)NNC(=O)c2ccc(C)c(Br)c2)cc1`: the pIC50 is 5.42.

For `Cc1cccc(-c2nc(NCCCN3CCOCC3)c3ccccc3n2)c1`, the IC50 is > 80 µM (inactive).

Regarding `CCOC(=O)c1cc(-c2ccc(N3CCOCC3)cc2)nn1-c1ccccc1C(=O)O`, the pIC50 is 5.23.

In the case of `CNc1nc(NC)c2cn[nH]c2n1`, the IC50 was > 80 µM (inactive).

Consider `O=C(N/N=C/c1cccc(Br)c1)c1ccc(Br)cc1`, for which the pIC50 is 4.96.

Take `C/C(=N\NC(=O)c1ccc(OC2OCCOC2Oc2ccc(C(=O)N/N=C(\C)c3ccncc3)cc2)cc1)c1ccncc1` (stereo unspecified): the pIC50 is 5.22.

Take `N=c1c(C(=O)NCc2ccc3c(c2)OCO3)cc2c(=O)n3ccccc3nc2n1Cc1cccnc1`: the pIC50 was 4.91.
